Structures are written as SMILES. In brackets after ≈: the same amount, converted by molar mass.

What all share (format): cell-based
The test system of experiment [1] is Aspergillus flavus. The experiment in a line: MIC, YAG medium. As to conditions: 24 h at 35° C, MIC banded into grades; for MIC: Aspergillus flavus, 24 h, read-out: MIC grade, A. flavus. Summed up: (§1)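 Spores from 5-day Sabouraud agar cultures were suspended in YAG medium (1% glucose, 1% ammonium chloride, 0.5% yeast extract) at final inocula of 1−2×10^4 cfu/mL against doubling dilutions of compound (50-0.05 mg/L; 0.5-0.0005 mg/L on repeat). Plates were incubated 24 h at 35° C. MIC was the lowest concentration giving >70% growth inhibition by OD485 versus drug-free control.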

The subject of experiment [2] is Aspergillus fumigatus AF210. The experiment in a line: MIC, YAG medium. As to conditions: 24 h at 35° C, MIC banded into grades; for MIC: Aspergillus fumigatus, read-out: MIC grade, A. fumigatus 210. Summed up: as §1
Experiment [3] deals with Aspergillus fumigatus AF293. The experiment can be described thus: MIC, YAG medium. As to conditions: 24 h at 35° C, MIC banded into grades; for MIC: Aspergillus fumigatus, read-out: MIC grade, A. fumigatus. Summed up:
as §1

For experiment [4], the system named is Aspergillus niger. The experiment can be described thus: MIC, YAG medium. As to conditions: 24 h at 35° C, MIC banded into grades; for MIC: Aspergillus niger, read-out: MIC grade, A. niger. Summed up:
as §1

Experiment [5] has as its system Aspergillus terreus AT49. The experiment can be described thus: MIC, YAG medium. As to conditions: 24 h at 35° C, MIC banded into grades; for MIC: Aspergillus terreus, read-out: MIC grade, A. terreus 49. In short, it runs like this:
as §1

Experiment [6] has as its system Aspergillus terreus AT4. The experiment in a line: MIC, YAG medium. As to conditions: 24 h at 35° C, MIC banded into grades; for MIC: Aspergillus terreus, read-out: MIC grade, A. terreus. In short, it runs like this:
as §1

Experiment [7] relates to Aspergillus flavus. The experiment can be described thus: MIC, RPMI medium. As to conditions: MIC banded into grades; for MIC: Aspergillus flavus, read-out: MIC grade, A. flavus. Summed up: (§2)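 Broth microdilution in RPMI medium with 2% glucose and 0.135 M MOPS (pH 7.0); compounds as doubling dilutions over 50-0.05 mg/L, inoculum 1−2×10^4 cfu/mL. Plates incubated 24-48 h at 35° C; OD 485 nm read, MIC being lowest concentration giving >80% growth inhibition versus drug-free control.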

In experiment [8] the test system is Aspergillus fumigatus AF210. The experiment in a line: MIC, RPMI medium. As to conditions: for MIC: Aspergillus fumigatus, AF210, MIC banded into grades, read-out: MIC grade, A. fumigatus 210. Summed up: as §2
The subject of experiment [9] is Aspergillus fumigatus AF293. The experiment in a line: MIC, RPMI medium. As to conditions: for MIC: Aspergillus fumigatus, AF293, MIC banded into grades, read-out: MIC grade, A. fumigatus. Summed up:
as §2

The test system of experiment [10] is Aspergillus niger. The experiment in a line: MIC, RPMI medium. As to conditions: MIC banded into grades; for MIC: Aspergillus niger, read-out: MIC grade, A. niger. Summed up:
as §2

The test system of experiment [11] is Aspergillus terreus AT49. The experiment can be described thus: MIC, RPMI medium. As to conditions: for MIC: Aspergillus terreus, AT49, MIC banded into grades, read-out: MIC grade, A. terreus 49. Summed up:
as §2

The subject of experiment [12] is Aspergillus terreus AT4. The experiment can be described thus: MIC, RPMI medium. As to conditions: for MIC: Aspergillus terreus, AT4, MIC banded into grades, read-out: MIC grade, A. terreus. In short, it runs like this:
as §2

For `COCCn1c(C)cc(-c2ccccc2)c1C(=O)C(=O)Nc1ccc(N2CCN(c3cc(C)cc(C)n3)CC2)cc1Cl` [Example 92, N-{2-Chloro-4-[4-(4,6-dimethyl-pyridin-2-yl)-piperazin-1-yl]-phenyl}-2-[1-(2-methoxy-ethyl)-5-methyl-3-phenyl-1H-pyrrol-2-yl]-2-oxo-acetamide], the “MIC grade, A. flavus” value against Aspergillus flavus [1] is reported as 3 (A grade of 3 represents an MIC of less than 1 mg/L); against Aspergillus flavus [7], 1 (a grade of 1 represents an MIC of greater than 10 mg/L). For the same compound, the “MIC grade, A. fumigatus 210” value in experiment [2] and in experiment [8] (MIC banded into grades) was 3 (A grade of 3 represents an MIC of less than 1 mg/L) throughout. The “MIC grade, A. fumigatus” value in [3] and in experiment [9] (MIC banded into grades) was 3 (A grade of 3 represents an MIC of less than 1 mg/L) each time. Moreover, the “MIC grade, A. niger” value in the experiment on Aspergillus niger [4] and in the experiment on Aspergillus niger [10] was 3 (A grade of 3 represents an MIC of less than 1 mg/L) in each case. The “MIC grade, A. terreus 49” value with Aspergillus terreus AT49 [5] is reported as 3 (A grade of 3 represents an MIC of less than 1 mg/L); in the experiment on Aspergillus terreus AT49 [11] (MIC banded into grades) it was 1 (a grade of 1 represents an MIC of greater than 10 mg/L). The “MIC grade, A. terreus” value was 3 (A grade of 3 represents an MIC of less than 1 mg/L) with Aspergillus terreus AT4 [6] and 1 (a grade of 1 represents an MIC of greater than 10 mg/L) against Aspergillus terreus AT4 [12] (MIC banded into grades).

`Cc1cc(C)nc(N2CCN(c3ccc(NC(=O)C(=O)c4c(-c5ccccc5)cc5n4CCN(C)C5)cc3)CC2)c1` [Example 5, N-{4-[4-(4,6-Dimethyl-pyridin-2-yl)-piperazin-1-yl]-phenyl}-2-(2-methyl-7-phenyl-1,2,3,4-tetrahydro-pyrrolo[1,2-a]pyrazin-6-yl)-2-oxo-acetamide]: the MIC was 1 to 10 µg/mL (≈ 1.82 to 18.2 µM) with Aspergillus flavus [1]; below 1 µg/mL in experiment [2]; below 1 µg/mL in experiment [3]; 1 to 10 µg/mL (≈ 1.82 to 18.2 µM) in the experiment on Aspergillus niger [4]; below 1 µg/mL in the experiment with Aspergillus terreus AT49 [5]; below 1 µg/mL with Aspergillus terreus AT4 [6]. Moreover, the MIC in the experiment with Aspergillus flavus [7] is 1 to 10 µg/mL (≈ 1.82 to 18.2 µM); in experiment [8] it was 1 to 10 µg/mL (≈ 1.82 to 18.2 µM); in experiment [9] it was 1 to 10 µg/mL (≈ 1.82 to 18.2 µM); with Aspergillus niger [10], 1 to 10 µg/mL (≈ 1.82 to 18.2 µM); with Aspergillus terreus AT49 [11], below 1 µg/mL; in the experiment with Aspergillus terreus AT4 [12], below 1 µg/mL.

As for `Cc1cc(-c2ccccc2)c(C(=O)C(=O)Nc2ccc(N3CCN(c4ccccn4)CC3)cc2)n1C` [Example 38, 2-(1,5-Dimethyl-3-phenyl-1H-pyrrol-2-yl)-2-oxo-N-[4-(4-pyridin-2-yl-piperazin-1-yl)-phenyl]-acetamide], the MIC (in the experiment with Aspergillus flavus [1]; in experiment [2]; in [3]; with Aspergillus niger [4]; in the experiment with Aspergillus terreus AT49 [5]; in the experiment with Aspergillus terreus AT4 [6]) was below 1 µg/mL throughout. Besides, the MIC (with Aspergillus flavus [7]; in [8]; in experiment [9]; with Aspergillus niger [10]; in the experiment with Aspergillus terreus AT49 [11]; in the experiment on Aspergillus terreus AT4 [12]) was below 1 µg/mL in each case.

With `Cc1cc(-c2ccccc2)c(C(=O)C(=O)Nc2ccc(N3CCN(c4ccccn4)CC3)c(F)c2)n1C` [Example 116, 2-(1,5-Dimethyl-3-phenyl-1H-pyrrol-2-yl)-N-[3-fluoro-4-(4-pyridin-2-yl-piperazin-1-yl)-phenyl]-2-oxo-acetamide], the MIC (in the experiment with Aspergillus flavus [1]; in experiment [2]; in experiment [3]; with Aspergillus niger [4]; in the experiment on Aspergillus terreus AT49 [5]; in the experiment on Aspergillus terreus AT4 [6]) was below 1 µg/mL throughout. For the same compound, the MIC in the experiment with Aspergillus flavus [7] was above 10 µg/mL; in [8], below 1 µg/mL; in [9] it was below 1 µg/mL; with Aspergillus niger [10] it was below 1 µg/mL; in the experiment on Aspergillus terreus AT49 [11], below 1 µg/mL; with Aspergillus terreus AT4 [12], below 1 µg/mL.

Turning to `COCCn1ccc(-c2cccs2)c1C(=O)C(=O)Nc1ccc(N2CCN(c3cc(C)cc(C)n3)CC2)cc1` [Example 67, N-{4-[4-(4,6-Dimethyl-pyridin-2-yl)-piperazin-1-yl]-phenyl}-2-[1-(2-methoxy-ethyl)-3-thiophen-2-yl-1H-pyrrol-2-yl]-2-oxo-acetamide], the MIC in the experiment with Aspergillus flavus [1] is below 1 µg/mL; in [2] it was below 1 µg/mL; in [3], below 1 µg/mL; in the experiment on Aspergillus niger [4], 1 to 10 µg/mL (≈ 1.84 to 18.4 µM); in the experiment on Aspergillus terreus AT49 [5], below 1 µg/mL; in the experiment with Aspergillus terreus AT4 [6], below 1 µg/mL. The MIC in the experiment with Aspergillus flavus [7] is 1 to 10 µg/mL (≈ 1.84 to 18.4 µM); in experiment [8] it was 1 to 10 µg/mL (≈ 1.84 to 18.4 µM); in experiment [9], 1 to 10 µg/mL (≈ 1.84 to 18.4 µM); with Aspergillus niger [10] it was above 10 µg/mL; with Aspergillus terreus AT49 [11], below 1 µg/mL; in the experiment with Aspergillus terreus AT4 [12] it was below 1 µg/mL.

`Cc1cc(C)nc(N2CCN(c3ccc(NC(=O)C(=O)c4c(-c5ccccc5)cc(C)n4C)cc3C)CC2)c1` [Example 51, 2-(1,5-Dimethyl-3-phenyl-1H-pyrrol-2-yl)-N-{4-[4-(4,6-dimethyl-pyridin-2-yl)-piperazin-1-yl]-3-methyl-phenyl}-2-oxo-acetamide]: the MIC (in the experiment on Aspergillus flavus [1]; in [2]; in [3]; in the experiment on Aspergillus niger [4]; in the experiment with Aspergillus terreus AT49 [5]; in the experiment on Aspergillus terreus AT4 [6]) was below 1 µg/mL each time. For the same compound, the MIC (with Aspergillus flavus [7]; in [8]; in [9]; in the experiment with Aspergillus niger [10]; with Aspergillus terreus AT49 [11]; in the experiment with Aspergillus terreus AT4 [12]) was below 1 µg/mL each time.

Regarding `COCCn1c(C)cc(-c2ccccc2)c1C(=O)C(=O)Nc1ccc(-c2ncco2)cc1` [Example 149, 2-[1-(2-Methoxy-ethyl)-5-methyl-3-phenyl-1H-pyrrol-2-yl]-N-(4-oxazol-2-yl-phenyl)-2-oxo-acetamide], the MIC (with Aspergillus flavus [1]; in experiment [2]; in experiment [3]; in the experiment on Aspergillus niger [4]; in the experiment on Aspergillus terreus AT49 [5]; in the experiment on Aspergillus terreus AT4 [6]) was below 1 µg/mL throughout. The MIC in the experiment on Aspergillus flavus [7] is above 10 µg/mL; in experiment [8] it was 1 to 10 µg/mL (≈ 2.33 to 23.3 µM); in experiment [9], 1 to 10 µg/mL (≈ 2.33 to 23.3 µM); with Aspergillus niger [10] it was below 1 µg/mL; in the experiment on Aspergillus terreus AT49 [11] it was 1 to 10 µg/mL (≈ 2.33 to 23.3 µM); in the experiment with Aspergillus terreus AT4 [12], 1 to 10 µg/mL (≈ 2.33 to 23.3 µM).

For the compound `Cc1cc(-c2ccccc2)c(C(=O)C(=O)Nc2ccc(N3CCN(CC(C)(C)C)CC3)cc2F)n1C` [Example 112, 2-(1,5-Dimethyl-3-phenyl-1H-pyrrol-2-yl)-N-{4-[4-(2,2-dimethyl-propyl)-piperazin-1-yl]-2-fluoro-phenyl}-2-oxo-acetamide], the MIC (in the experiment with Aspergillus flavus [1]; in [2]; in experiment [3]; in the experiment on Aspergillus niger [4]; in the experiment with Aspergillus terreus AT49 [5]; in the experiment with Aspergillus terreus AT4 [6]) was below 1 µg/mL each time. In addition, the MIC (in the experiment with Aspergillus flavus [7]; in experiment [8]; in experiment [9]; with Aspergillus niger [10]; in the experiment on Aspergillus terreus AT49 [11]; in the experiment on Aspergillus terreus AT4 [12]) was below 1 µg/mL throughout.

As for `Cc1cc(-c2ccccc2)c(C(=O)C(=O)Nc2ccc(N3CCN(Cc4ccccc4)CC3)cc2)n1C` [Example 144, N-[4-(4-Benzyl-piperazin-1-yl)-phenyl]-2-(1,5-dimethyl-3-phenyl-1H-pyrrol-2-yl)-2-oxo-acetamide], the minimum inhibitory concentration (MIC) (with Aspergillus flavus [1]; in experiment [2]; in experiment [3]; with Aspergillus niger [4]; in the experiment with Aspergillus terreus AT49 [5]; in the experiment on Aspergillus terreus AT4 [6]) was below 1 µg/mL in each case. The MIC (in the experiment with Aspergillus flavus [7]; in experiment [8]; in experiment [9]; with Aspergillus niger [10]; in the experiment on Aspergillus terreus AT49 [11]; in the experiment on Aspergillus terreus AT4 [12]) was below 1 µg/mL in each case.

In general, MIC refers to the lowest concentration that inhibits growth of the organism.

For the origin of these results see US8993574B2, “Pyrrole antifungal agents” (F2G Ltd, priority 2008, dated 2015).
